Results reported in patent US20150094321A1, “COMBINATION” (GlaxoSmithKline LLC, priority 2009, published 2015).
pIC50: −log10 of the molar value.

Tests used:
Test in all cases: Cell line proliferation study
Assay type in all cases: cell-based, human
[1] = system: HT29; conditions: HT29, colon; for pIC50: Homo sapiens, HT-29, 72 hours, read-out: gIC50
Method: (§1) In a separate study, combination drug tests with Compounds A and B were conducted using a panel of cell lines from human colon cancers (n=26), lung cancers (n=15) and pancreatic cancers (n=6). Cell lines were obtained from commercial vendors (ATCC and DSMZ). Cell lines were grown in RPMI-1640 supplemented with 2 mM glutamine, 1 mM sodium pyruvate and 10% fetal bovine serum (except for Capan-1 and HuP-T4 which were grown with 20% fetal bovine serum) and maintained at 37° C. and 5% CO2 in a humid incubator. Assays were performed in 384 well microtiter plates with optimum seeding densities for each cell line.
(§2) The test compounds were prepared as 10 mM stocks in 100% DMSO. Further dilutions of the compounds were made in DMSO. Compound A was diluted horizontally in a separate 96 well microtiter plate in rows D-G using a 3-fold dilution series for 10 dilution points. Compound B was similarly diluted horizontally in a 96 well microtiter plate in rows B-E using a 3-fold dilution series for 10 dilution points.
(§3) The two compounds were combined using equal volumes from each drug plate into cell culture media. […] Both Compound A and Compound B were individually titrated in rows B and C (for Compound B) and rows F and G (for Compound A) of the merged drug plate.
(§4) A 1:10 dilution of the drugs was performed in cell culture media prior to addition to the cells.
(§5) The final concentration range for the test compounds was 250 to 0.013 nM for Compound A and 1000 to […] for Compound B. The positive control consisted of culture media with DMSO at 0.1% and cells. The negative control consisted of culture media with DMSO at 0.1%. The cell lines were incubated at 37° C., 5% CO2 in humid air for 72 hours. Cell proliferation was measured using the CellTiter Glo (Promega) reagent according to the manufacturer's protocol. The plates are treated with CellTiter Glo solution and are analyzed for RLU (relative light units) using a Molecular Devices SpectraMax M5 plate reader.
(§6) The percent intensity values were used in model 205 of XLfit (IDBS, Inc.) in Microsoft Excel to calculate gIC50 values using a 4 parameter logistical fit. The midpoint of the growth window (the gIC50) falls half way between the number of cells at the time of compound addition (T=0) and the growth of control cells treated with DMSO at 72 hrs. The number of cells at time zero (T0) is divided from the intensity value at the bottom of the response curve (Ymin) to generate a measure for cell death (Ymin/T0). A value below 1 for Ymin/T0 indicates stronger potency to induce cell death with the treatment when compared to higher values.
(§7) 1. Excess over Highest Single Agent (EOHSA)—This was calculated as described above (Borisy et al, 2003; FDA 21 CFR 300.50) 2. Bliss synergy—A second criterion often used to determine combination synergy is evaluating the excess inhibition over Bliss independence or “additivity” (Bliss and Mexico, 1939). The model assumes a combined response of the two compounds independently using the following:
(§8) Where Ea is the effect (or percent inhibition) of Compound A and Eb is the effect of Compound B. The resulting effect of the combination of the two compounds is compared to their predicted additivity by Bliss and a synergy score is generated for each dose along the response curve. 3. Combination Index (CI)—A third criterion traditionally used for the evaluation of synergy is Combination Index (CI) derived from the Chou and Talalay (1984). The following equation is a model used for compounds that behave with different mechanisms of action (mutually non-exclusive formula). This was calculated as described above.
(§9) For EOHSA and Bliss Synergy measures, a score is generated for each dose along the response curve. These scores reflect the percentage over the highest agent (EOHSA) or percentage greater than Bliss additivity, depending on which metric is being interpreted. […]

[2] = system: KM12; conditions: KM12, colon; for pIC50: Homo sapiens, 72 hours, read-out: gIC50
Method: as §1, §2, §3, §4, §5, §6, §7, §8, §9

[3] = system: LS1034; conditions: LS1034, colon; for pIC50: Homo sapiens, LS-1034, 72 hours, read-out: gIC50
Method: as §1, §2, §3, §4, §5, §6, §7, §8, §9

[4] = system: LS174T; conditions: colon; for pIC50: Homo sapiens, 72 hours, read-out: gIC50
Method: as §1, §2, §3, §4, §5, §6, §7, §8, §9

[5] = system: NCIH1299; conditions: NCIH1299, lung; for pIC50: Homo sapiens, NCI-H1299, 72 hours, read-out: gIC50
Method: as §1, §2, §3, §4, §5, §6, §7, §8, §9

[6] = system: NCIH1563; conditions: NCIH1563, lung; for pIC50: Homo sapiens, NCI-H1563, 72 hours, read-out: gIC50
Method: as §1, §2, §3, §4, §5, §6, §7, §8, §9

[7] = system: SW1990; conditions: SW1990, pancreas; for pIC50: Homo sapiens, 72 hours, read-out: gIC50
Method: as §1, §2, §3, §4, §5, §6, §7, §8, §9

[8] = system: SW403; conditions: SW403, colon; for pIC50: Homo sapiens, SW-403, 72 hours, read-out: gIC50
Method: as §1, §2, §3, §4, §5, §6, §7, §8, §9

[9] = system: SW480; conditions: SW480, colon; for pIC50: Homo sapiens, 72 hours, read-out: gIC50
Method: as §1, §2, §3, §4, §5, §6, §7, §8, §9

[10] = system: SW48; conditions: SW48, colon; for pIC50: Homo sapiens, 72 hours, read-out: gIC50
Method: as §1, §2, §3, §4, §5, §6, §7, §8, §9

[11] = system: SW837; conditions: SW837, colon; for pIC50: Homo sapiens, 72 hours, read-out: gIC50
Method: as §1, §2, §3, §4, §5, §6, §7, §8, §9

[12] = system: SW900; conditions: SW900, lung; for pIC50: Homo sapiens, 72 hours, read-out: gIC50
Method: as §1, §2, §3, §4, §5, §6, §7, §8, §9

[13] = system: SW948; conditions: SW948, colon; for pIC50: Homo sapiens, 72 hours, read-out: gIC50
Method: as §1, §2, §3, §4, §5, §6, §7, §8, §9

[14] = system: WiDr; conditions: colon; for pIC50: Homo sapiens, 72 hours, read-out: gIC50
Method: as §1, §2, §3, §4, §5, §6, §7, §8, §9

[15] = system: YAPC; conditions: pancreas; for pIC50: Homo sapiens, 72 hours, read-out: gIC50
Method: as §1, §2, §3, §4, §5, §6, §7, §8, §9

| SMILES | Ymin/T0 [1] | pIC50 [1] | pIC50 [2] | Ymin/T0 [2] | pIC50 [3] | Ymin/T0 [3] | pIC50 [4] | Ymin/T0 [4] | pIC50 [5] | Ymin/T0 [5] | pIC50 [6] | Ymin/T0 [6] | pIC50 [7] | Ymin/T0 [7] | pIC50 [8] | Ymin/T0 [8] | pIC50 [9] | Ymin/T0 [9] | pIC50 [10] | Ymin/T0 [10] | further results |
| --- | --- | --- | --- | --- | --- | --- | --- | --- | --- | --- | --- | --- | --- | --- | --- | --- | --- | --- | --- | --- | --- |
| CC(=O)Nc1cccc(-n2c(=O)n(C3CC3)c(=O)c3c(Nc4ccc(I)cc4F)n(C)c(=O)c(C)c32)c1 [Compound A, N-{3-[3-cyclopropyl-5-(2-fluoro-4-iodo-phenylamino)-6,8-dimethyl-2,4,7-trioxo-3,4,6,7-tetrahydro-2H-pyrido[4,3-d]pyrimidin-1-yl]phenyl}acetamide] | 11.99 | 8.44 | 7.54 | 19.1 | 7.43 | 2.87 | 7.09 | 18.26 | 7.62 | 45.9 | < 6.60 | 26.6 | 7.03 | 17.1 | 8.34 | 3.02 | 6.49 | 29.37 | 8.09 | 13.02 | pIC50 [11]: 6.81; Ymin/T0 [11]: 25.58; pIC50 [12]: 7.82; Ymin/T0 [12]: −5.9; pIC50 [13]: 6.73; Ymin/T0 [13]: 27.87; pIC50 [14]: 8.73; Ymin/T0 [14]: 3.94; pIC50 [15]: < 6.60; Ymin/T0 [15]: 59.4 |
| Cn1ncc(Cl)c1-c1cc(C(=O)N[C@H](CN)Cc2ccc(F)c(F)c2)oc1Cl [Compound B, N-{(1S)-2-amino-1-[(3,4-difluorophenyl)methyl]ethyl}-5-chloro-4-(4-chloro-1-methyl-1H-pyrazol-5-yl)-2-furancarboxamide] | 11.64 | 6.11 | 6.03 | 13.9 | < 6.00 | −0.67 | < 6.00 | 19.70 | < 6.00 | 58.1 | 7.19 | 27.6 | < 6.00 | 36.8 | 7.13 | 8.82 | < 6.00 | 11.87 | 6.37 | 11.68 | pIC50 [11]: < 6.00; Ymin/T0 [11]: 63.88; pIC50 [12]: < 6.00; Ymin/T0 [12]: 47.3; pIC50 [13]: 6.22; Ymin/T0 [13]: 20.46; pIC50 [14]: 6.15; Ymin/T0 [14]: 5.24; pIC50 [15]: < 6.00; Ymin/T0 [15]: 55.2 |
